Test results: patent US20260364214A1, “MULTIVALENT FIBROBLAST ACTIVATION PROTEIN LIGANDS FOR TARGETED DELIVERY APPLICATIONS” (Philochem AG, priority 2022, published 2026)

target: T1, recombinant hFAP (Homo sapiens, UniProt Q12884); test: hFAP inhibition assay (Z-Gly-Pro-AMC substrate); format: biochemical; conditions: Z-Gly-Pro-AMC 20 μM; protein 66 μM; pH 7.4; room temperature
T1 sequence (Q12884 26-760 limits assumed): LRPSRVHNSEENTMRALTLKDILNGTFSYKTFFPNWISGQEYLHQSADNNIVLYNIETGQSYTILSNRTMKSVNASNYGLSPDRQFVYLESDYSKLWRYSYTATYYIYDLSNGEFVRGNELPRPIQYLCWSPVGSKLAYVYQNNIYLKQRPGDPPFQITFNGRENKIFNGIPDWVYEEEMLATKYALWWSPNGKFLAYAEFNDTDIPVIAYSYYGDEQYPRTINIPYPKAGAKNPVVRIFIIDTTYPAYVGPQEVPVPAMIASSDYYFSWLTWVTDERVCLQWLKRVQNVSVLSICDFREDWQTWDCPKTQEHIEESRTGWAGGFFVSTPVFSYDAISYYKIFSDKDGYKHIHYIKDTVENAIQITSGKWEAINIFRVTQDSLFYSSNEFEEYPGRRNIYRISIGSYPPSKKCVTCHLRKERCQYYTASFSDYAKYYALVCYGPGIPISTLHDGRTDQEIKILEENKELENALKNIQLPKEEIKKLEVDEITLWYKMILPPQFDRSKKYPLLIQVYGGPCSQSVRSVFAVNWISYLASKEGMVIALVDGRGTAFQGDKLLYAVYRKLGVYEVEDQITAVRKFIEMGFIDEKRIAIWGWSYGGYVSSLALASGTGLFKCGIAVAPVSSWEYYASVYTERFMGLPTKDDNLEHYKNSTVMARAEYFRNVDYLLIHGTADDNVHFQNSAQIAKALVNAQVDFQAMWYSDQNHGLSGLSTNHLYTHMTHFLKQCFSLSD
Method: (§1) Enzymatic activity of hFAP on the Z-Gly-Pro-AMC substrate was measured at room temperature on a microtiter plate reader, monitoring the fluorescence at an excitation wavelength of 360 nm and an emission wavelength of 465 nm. The reaction mixture contained substrate (20 μM), protein (66 μM, constant), assay buffer (50 mM Tris, 100 mM NaCl, and 1 mM EDTA, pH=7.4), and inhibitors with serial dilution from 167 nM to 80 fM, 1:2 in a total volume of 20 μL. Experiments were performed in triplicate, and the mean fluorescence values were fitted using Prism 7. The value is defined as the concentration of inhibitor required to reduce the enzyme activity by 50% after addition of the substrate [FIG. 1 and FIG. 8].
According to the same procedure, further comparative inhibition assays with trimeric binders having inter alia different lengths of linker group B and/or different payload groups C were performed with compounds Tri-ESV6-ValCit-MMAE (14), Tri-ESV6-linker-DOTAGA (13) and diastereoisomers of Tri-ESV6-DOTAGA (11, 12) [FIG. 18]. Comparative hFAP inhibition assays with tetravalent binders 10 and 29 were also performed [FIG. 20].
as §1, with “substrate.” for “substrate [FIG. 1 and FIG. 8].”
as §1, with “e) Inhibition assay with Tri-ESV6-DOTAGA, Tetra-ESV6-DOTAGA, Hexa-ESV6-DOTAGA, Octa-ESV6-DOTAGA, ESV6-L-DOTAGA and BI-ESV6-L-DOTAGA. Enzymatic” for “Enzymatic”, “substrate.” for “substrate [FIG. 1 and FIG. 8].”

Q: With `N#C[C@@H]1CC(F)(F)CN1C(=O)CNC(=O)c1ccnc2c(NC(=O)CCC(=O)NCCOCCOCCOCCOCCC(=O)NCCNC(=O)CCOCC(COCCC(=O)NCCNC(=O)CCOCCOCCOCCOCCNC(=O)CCC(=O)Nc3cccc4c(C(=O)NCC(=O)N5CC(F)(F)C[C@H]5C#N)ccnc34)(COCCC(=O)NCCNC(=O)CCOCCOCCOCCOCCNC(=O)CCC(=O)Nc3cccc4c(C(=O)NCC(=O)N5CC(F)(F)C[C@H]5C#N)ccnc34)NC(=O)CCC(C(=O)O)N3CCN(CC(=O)O)CCN(CC(=O)O)CCN(CC(=O)O)CC3)cccc12` (stereo partly shown) [Tri-ESV6-PEG4-DOTAGA] as the molecule, how does the IC50 read?
A: 0.126 nM

Q: `N#C[C@@H]1CC(F)(F)CN1C(=O)CNC(=O)c1ccnc2c(NC(=O)CCC(=O)NCCOCCOCCOCCOCCOCCOCCOCCOCCC(=O)NCCNC(=O)CCOCC(COCCC(=O)NCCNC(=O)CCOCCOCCOCCOCCOCCOCCOCCOCCNC(=O)CCC(=O)Nc3cccc4c(C(=O)NCC(=O)N5CC(F)(F)C[C@H]5C#N)ccnc34)(COCCC(=O)NCCNC(=O)CCOCCOCCOCCOCCOCCOCCOCCOCCNC(=O)CCC(=O)Nc3cccc4c(C(=O)NCC(=O)N5CC(F)(F)C[C@H]5C#N)ccnc34)NC(=O)CCC(C(=O)O)N3CCN(CC(=O)O)CCN(CC(=O)O)CCN(CC(=O)O)CC3)cccc12` (stereo partly shown) [Tri-ESV6-PEG8-DOTAGA] was tested. Which IC50 did it give?
A: 1.1 nM

Q: With `N#C[C@@H]1CC(F)(F)CN1C(=O)CNC(=O)c1ccnc2c(NC(=O)CCC(=O)NCCOCCOCCOCCOCCOCCOCCC(=O)NCCNC(=O)CCOCC(COCCC(=O)NCCNC(=O)CCOCCOCCOCCOCCOCCOCCNC(=O)CCC(=O)Nc3cccc4c(C(=O)NCC(=O)N5CC(F)(F)C[C@H]5C#N)ccnc34)(COCCC(=O)NCCNC(=O)CCOCCOCCOCCOCCOCCOCCNC(=O)CCC(=O)Nc3cccc4c(C(=O)NCC(=O)N5CC(F)(F)C[C@H]5C#N)ccnc34)NC(=O)CCC(C(=O)O)N3CCN(CC(=O)O)CCN(CC(=O)O)CCN(CC(=O)O)CC3)cccc12` (stereo partly shown) [Tri-ESV6-PEG6-DOTAGA] as the molecule, how does the IC50 read?
A: 0.273 nM

Q: How did the IC50 turn out when `N#C[C@@H]1CC(F)(F)CN1C(=O)CNC(=O)c1ccnc2c(NC(=O)CCC(=O)NCCOCCOCCC(=O)NCCNC(=O)CCOCC(COCCC(=O)NCCNC(=O)CCOCCOCCNC(=O)CCC(=O)Nc3cccc4c(C(=O)NCC(=O)N5CC(F)(F)C[C@H]5C#N)ccnc34)(COCCC(=O)NCCNC(=O)CCOCCOCCNC(=O)CCC(=O)Nc3cccc4c(C(=O)NCC(=O)N5CC(F)(F)C[C@H]5C#N)ccnc34)NC(=O)CCC(C(=O)O)N3CCN(CC(=O)O)CCN(CC(=O)O)CCN(CC(=O)O)CC3)cccc12` (stereo partly shown) [Tri-ESV6-PEG2-DOTAGA] was run?
A: 0.038 nM

same assay, conditions: recombinant hFAP

Q: How did the “IC50 / inhibitory activity, comparison in words” value (from here on “IC50 / inhibitory activity”) turn out when `N#C[C@@H]1CC(F)(F)CN1C(=O)CNC(=O)c1ccnc2c(NC(=O)CCC(=O)NCCCCC(NC(=O)CCC(=O)Nc3cccc4c(C(=O)NCC(=O)N5CC(F)(F)C[C@H]5C#N)ccnc34)C(=O)NCCNC(=O)CCC(C(=O)O)N3CCN(CC(=O)O)CCN(CC(=O)O)CCN(CC(=O)O)CC3)cccc12` (stereo partly shown) [Bi-ESV6-DOTAGA, reference compound] was run?
A: IC50 comparable to the ones of original derivatives

Q: Which “IC50 / inhibitory activity” value does the source give for `N#C[C@@H]1CC(F)(F)CN1C(=O)CNC(=O)c1ccnc2c(NC(=O)CCC(=O)NCCNC(=O)CCOCC(COCCC(=O)NCCNC(=O)CCC(=O)Nc3cccc4c(C(=O)NCC(=O)N5CC(F)(F)C[C@H]5C#N)ccnc34)NC(=O)CCOCC(COCCC(=O)NC(COCCC(=O)NCCNC(=O)CCC(=O)Nc3cccc4c(C(=O)NCC(=O)N5CC(F)(F)C[C@H]5C#N)ccnc34)COCCC(=O)NCCNC(=O)CCC(=O)Nc3cccc4c(C(=O)NCC(=O)N5CC(F)(F)C[C@H]5C#N)ccnc34)NC(=O)CCC(C(=O)O)N3CCN(CC(=O)O)CCN(CC(=O)O)CCN(CC(=O)O)CC3)cccc12` (stereo partly shown) [Tetra-ESV6-DOTAGA] here?
A: directly proportional to the valency until Tetra-ESV6-DOTAGA

Q: How did the “IC50 / inhibitory activity” value turn out when `N#C[C@@H]1CC(F)(F)CN1C(=O)CNC(=O)c1ccnc2c(NC(=O)CCC(=O)NCCNC(=O)CCOCCNC(=O)CCC(C(=O)O)N3CCN(CC(=O)O)CCN(CC(=O)O)CCN(CC(=O)O)CC3)cccc12` (stereo partly drawn) [ESV6-L-DOTAGA] was run?
A: IC50 comparable to the ones of original derivatives
